Results published in ChEMBL document CHEMBL4007394, “Type I DNA Topoisomerases” (J Med Chem, 2017).

Key:
[1] = target: Bifunctional 3'-5' exonuclease/ATP-dependent helicase WRN (Homo sapiens, UniProt Q14191); experiment: Inhibition of recombinant WRN (unknown origin) helicase activity expressed in baculovirus expression system using forked duplex DNA as substrate after 15 mins by polyacrylamide gel electrophoresis
[2] = Inhibition of recombinant Streptococcus pneumoniae R6 topoisomerase-1 expressed in Escherichia coli assessed as reduction in enzyme-catalyzed relaxation of supercoiled pBR322 DNA preincubated for 10 mins by ethidium bromide staining based electrophoresis

Bifunctional 3'-5' exonuclease/ATP-dependent helicase WRN, sequence (Q14191 whole entry): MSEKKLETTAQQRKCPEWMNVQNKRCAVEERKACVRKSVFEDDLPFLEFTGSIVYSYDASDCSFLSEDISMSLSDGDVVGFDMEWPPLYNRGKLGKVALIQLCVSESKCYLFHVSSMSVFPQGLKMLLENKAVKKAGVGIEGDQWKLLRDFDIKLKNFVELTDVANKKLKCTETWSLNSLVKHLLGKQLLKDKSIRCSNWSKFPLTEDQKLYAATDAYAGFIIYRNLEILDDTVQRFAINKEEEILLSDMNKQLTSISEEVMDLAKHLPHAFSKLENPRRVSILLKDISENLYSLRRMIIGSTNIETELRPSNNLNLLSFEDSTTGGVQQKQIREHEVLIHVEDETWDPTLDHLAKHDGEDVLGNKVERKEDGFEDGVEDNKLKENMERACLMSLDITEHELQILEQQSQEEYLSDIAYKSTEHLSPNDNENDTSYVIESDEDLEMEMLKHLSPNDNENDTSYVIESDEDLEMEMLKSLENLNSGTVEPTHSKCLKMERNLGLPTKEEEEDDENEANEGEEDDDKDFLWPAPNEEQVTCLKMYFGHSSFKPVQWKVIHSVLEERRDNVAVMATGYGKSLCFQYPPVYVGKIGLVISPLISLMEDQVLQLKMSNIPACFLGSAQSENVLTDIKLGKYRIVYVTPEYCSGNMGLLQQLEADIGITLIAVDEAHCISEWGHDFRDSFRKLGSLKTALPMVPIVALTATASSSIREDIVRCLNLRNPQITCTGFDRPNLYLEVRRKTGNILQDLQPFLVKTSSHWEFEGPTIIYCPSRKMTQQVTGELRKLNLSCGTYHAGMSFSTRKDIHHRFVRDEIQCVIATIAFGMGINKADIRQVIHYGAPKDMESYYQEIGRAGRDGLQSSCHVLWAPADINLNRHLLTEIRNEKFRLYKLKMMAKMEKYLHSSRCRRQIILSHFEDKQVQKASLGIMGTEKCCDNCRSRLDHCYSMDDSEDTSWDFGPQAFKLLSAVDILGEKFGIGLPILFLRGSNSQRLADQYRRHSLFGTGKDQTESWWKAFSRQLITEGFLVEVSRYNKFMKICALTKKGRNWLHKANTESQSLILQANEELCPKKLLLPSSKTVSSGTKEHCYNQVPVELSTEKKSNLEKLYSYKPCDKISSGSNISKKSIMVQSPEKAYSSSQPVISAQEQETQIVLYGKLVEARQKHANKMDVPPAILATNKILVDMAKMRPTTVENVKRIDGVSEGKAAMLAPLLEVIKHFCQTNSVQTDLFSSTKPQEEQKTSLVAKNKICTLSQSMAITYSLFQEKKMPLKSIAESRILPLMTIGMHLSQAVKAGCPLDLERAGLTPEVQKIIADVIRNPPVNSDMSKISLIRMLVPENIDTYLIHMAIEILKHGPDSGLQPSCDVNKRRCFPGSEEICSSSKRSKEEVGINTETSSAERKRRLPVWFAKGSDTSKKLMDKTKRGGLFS

Row | IC50 [1] [µM] | Structure (SMILES) | IC50 [2] [µM]
1 | 3 | CCC(=O)OCN1C(=O)C=CC1=O | –
2 | – | CNCCc1cc2c(c3c1ccc1cc4c(cc13)OCO4)OCO2 | 17
